How the values were obtained:
male Long Evans rats = assay: Attentional set-shifting task (sub-chronic PCP rats); format: in vivo, rat; details: single oral administration after CD
Experimental: Attentional Set-Shifting Task
The compound of the present invention was evaluated by an attentional set-shifting task test.
The attentional set-shifting task test, as in WCST, is a test for measuring flexibility with respect to the change of a rule (clue). The effect on executive function disorder which is one of higher brain dysfunctions can be evaluated by this test.
After allowing the mouse to learn a task that food reward is obtained if there is a clue, in the case where the clue is shifted within a dimension (for example, the clue is changed from a form to another form), both normal animal and pathological animal having abnormality in the prefrontal cortex of the brain (hereinafter, referred to as “pathological animal”) can discriminate clues to obtain food reward. However, after allowing the mouse to learn a task of obtaining food reward by a clue, in the case where the clue is shifted to the outside of a dimension (for example, the clue is changed from a form to aroma), the normal animal can discriminate a clue of food, but the pathological animal cannot discriminate the clue of food. This test puts this behavior to practical use.
The following experiments were carried out with reference to European Journal of Neuroscience, 2005, vol. 21, p. 1070-1076, which was partially modified. […]

ddY male mouse = assay: Y-maze test (spontaneous alternation behavior, MK-801-induced cognitive impairment); format: in vivo; details: single oral administration 1 hour before test, MK-801 0.15 mg/kg i.p.
Experimental: The improvement effect on cognitive impairment of the compound of the present invention was evaluated using Y-maze test that is an experimental system of spontaneous alternation behavior.
As the Y-maze, a maze in which three runways, each having a length of 40 cm, a height of 13 cm, a floor width of 3 cm, and an upper portion width of 10 cm, are attached to each other in a Y shape at an angle of 120°, was used. […]
After the aforementioned mouse was placed at the end of any runway in the Y-maze, the mouse was freely searched for eight minutes. The number of times the mouse has entered the runway was counted, and this counted number of times was set to the total entry number. The number of times the mouse has continuously entered three different runways (for example, when three arms were represented by a, b, and c, respectively, in the case where the order of entry of runways is abccbacab, it was counted by 4) was set to spontaneous alternation behavior number. Spontaneous alternation behavior rate is calculated by Calculation Equation: Spontaneous alternation behavior rate=[spontaneous alternation behavior number/(total entry number−2)]×100. The calculated spontaneous alternation behavior rate was set to an index of spontaneous alternation behavior.
The measured value was represented by average value f standard error for each group. […]

[1] = target: T1, human dopamine D1 receptor (Homo sapiens, UniProt P21728); assay: Evaluation of positive allosteric modulating action (PAM action): left shift of dopamine dose-response curve (cAMP, TR-FRET); format: cell-based; details: human dopamine D1 receptor stably-expressing CHO cells
T1 construct: expressed in transfected cells
Experimental: Buffer solution for assay=αMEM containing 1 mM IBMX
Buffer solution for dilution=αMEM containing 1 mM IBMX and 0.8 mM ascorbic acid
Evaluation of Positive allosteric modulating action (PAM action)
The PAM action of the compound of the present invention was evaluated by the ratio of a left shift of a dopamine dose response curve.
The left shift means that the dopamine dose response curve, in which the logarithm of dose is set to abscissa (X axis) and the response (in this test, cAMP concentration) is set to ordinate (Y axis), is parallely shifted in the negative direction of the X axis by the addition of PAM.
The coding sequence of a human dopamine D1 receptor (Accession No.: NM_000794.3) was amplified by PCR, and was subcloned into a pEF-BOS vector. […]
To measure cAMP, LANCE Ultra cAMP kit (PerkinElmer Inc., LANCE is a registered trademark) was used. […] The plate was incubated at room temperature for 1 hour, and then the fluorescence intensity at 665 nm and 620 nm was measured (excitation wavelength: 320 nm, fluorescence wavelength: 665 nm, 620 nm) by TR-FRET method using a plate reader (2103 Multilabel Plate Reader (registered trademark Envision), PerkinElmer, Inc.). The fluorescence intensity ratio [(fluorescence intensity at 665 nm)/(fluorescence intensity at 620 nm)×10^4] of each well was calculated, and was used for analysis. […]

T1 sequence (P21728 whole entry): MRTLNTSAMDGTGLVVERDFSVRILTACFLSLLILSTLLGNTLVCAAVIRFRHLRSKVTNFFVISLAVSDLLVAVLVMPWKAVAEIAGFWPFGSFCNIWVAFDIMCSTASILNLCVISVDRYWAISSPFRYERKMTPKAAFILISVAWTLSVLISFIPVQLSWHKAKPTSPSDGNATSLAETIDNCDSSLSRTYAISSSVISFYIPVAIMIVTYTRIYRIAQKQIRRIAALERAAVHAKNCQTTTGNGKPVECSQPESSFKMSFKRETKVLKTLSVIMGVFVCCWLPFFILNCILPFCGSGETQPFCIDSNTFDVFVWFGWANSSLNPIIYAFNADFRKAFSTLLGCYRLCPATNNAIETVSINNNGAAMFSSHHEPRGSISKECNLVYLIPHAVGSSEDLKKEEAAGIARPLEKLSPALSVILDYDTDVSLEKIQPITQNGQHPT

O=C(Cn1c(=O)oc2cccc(F)c21)N1CCCn2cc(-c3ccc(C(F)(F)F)cc3)nc2C1 [Ex1, 4-fluoro-3-(2-oxo-2-{2-[4-(trifluoromethyl)phenyl]-6,7-dihydro-5H-imidazo[1,2-a][1,4]diazepin-8(9H)-yl}ethyl)-1,3-benzoxazol-2(3H)-one]
Dat3: minimum effective dose (improving the executive function disorder, ED task) (male Long Evans rats): 0.003 mg/kg | Dat2: minimum effective dose (significantly improving spontaneous alternation behavior) (ddY male mouse): 0.03 mg/kg | EC50 2-fold potentiation (test drug concentration by which the EC50 of dopamine is potentiated in 2-fold) [1]: 0.061 µM

From US10426784B2, “Imidazodiazepine compound” (Astellas Pharma Inc., priority 2015, dated 2019)
